This is an account of results in patent publication US7973075B2, “Kainate receptor-selective epimeric analogs of dysiherbaine” (priority 2007, dated 2011).

Where “and” joins values, the source holds several entries; their conditions need not be identical. Equal values may be shown once. Read-outs that look alike come from different tables or passages of the source.

In one test the target is T1, GluR6a (Rattus norvegicus, UniProt P42260).
T1 construct: expressed in transfected cells; host or cells: HEK-293-T/17
In words: Radioligand binding ([3H]kainate displacement), HEK-293-T/17 membranes, Example 2. As to conditions: for Ki: [3H]kainate displacement, Cheng-Prusoff. As for the experimental part: (§1) Radioligand binding. Membrane preparations from HEK-293-T/17 cells were prepared and used in radioligand binding assays as described previously (Sanders et al., 2005). Unlabeled analogs were used to displace [3H]kainate (10-20 nM, PerkinElmer Life and Analytical Sciences, Boston, Mass.) or [3H]AMPA (20 nM, PerkinElmer Life and Analytical Sciences, Boston, Mass.) from KARs and AMPARs, respectively. Nonspecific binding was determined in the presence of 1 mM glutamate. After 1 hour incubation at 4° C., samples were harvested by rapid filtration onto Whatman GF/C membranes. Upon addition of scintillation fluid, membranes were incubated for 1 hour at room temperature. A Beckman LS5000TD scintillation counter was used for quantification (Beckman Coulter Inc., Fullerton, Calif.). Data were plotted and fit with a one-site competition curve with fixed minima and maxima using Prism 4 (GraphPad Software, Inc). Ki's were calculated with the Cheng-Prusoff equation using the determined IC5o values and the radioligand Kd. Data were plotted and fit with a one-site competition curve with fixed minima (0) and maxima (100) (Prism4, GraphPad Software, Inc.). Correlation analysis was performed with these binding data and the seizure activity of each analog, represented as ED50 values.
(§2) The pharmacological profiles of the Group I analogs, 8-deoxy-neoDH and 9-deoxyneoDH, were analyzed initially in radioligand binding experiments with expressed recombinant AMPA and kainate receptor subunits. Displacement of [3H]kainate from cell membranes with a range of analog concentrations yielded IC50 values that were then used to calculate Ki values for each analog/receptor combination. Both Group 1 analogs retained high affinity only for GluR5-2a KAR subunits (FIG. 8A). […] Weak binding to other KAR and AMPAR subunits was observed, with all Ki values estimated at >10 μM (n=3-5; Table 3, FIG. 8A).
(§3) For comparison, the Ki values for neoDH and MSVIII-19 are included in the table (Sanders et al., 2005). Removal of the C9 hydroxyl eliminated binding to all receptor subunits (Ki values estimated at >100 μM), with the exception of GluR5-2a KARs.

The target in the next test is T2, GluR5-2a (Rattus norvegicus, UniProt P22756, DEL402-416).
T2 construct: expressed in transfected cells; host or cells: HEK-293-T/17
Described as above. As to conditions: Cheng-Prusoff. As for the experimental part:
as §1, §2, §3

Another test concerns the target T3, KA2 (Rattus norvegicus, UniProt Q63273).
T3 construct: expressed in transfected cells; host or cells: HEK-293-T/17
T3 sequence (Q63273 15-979): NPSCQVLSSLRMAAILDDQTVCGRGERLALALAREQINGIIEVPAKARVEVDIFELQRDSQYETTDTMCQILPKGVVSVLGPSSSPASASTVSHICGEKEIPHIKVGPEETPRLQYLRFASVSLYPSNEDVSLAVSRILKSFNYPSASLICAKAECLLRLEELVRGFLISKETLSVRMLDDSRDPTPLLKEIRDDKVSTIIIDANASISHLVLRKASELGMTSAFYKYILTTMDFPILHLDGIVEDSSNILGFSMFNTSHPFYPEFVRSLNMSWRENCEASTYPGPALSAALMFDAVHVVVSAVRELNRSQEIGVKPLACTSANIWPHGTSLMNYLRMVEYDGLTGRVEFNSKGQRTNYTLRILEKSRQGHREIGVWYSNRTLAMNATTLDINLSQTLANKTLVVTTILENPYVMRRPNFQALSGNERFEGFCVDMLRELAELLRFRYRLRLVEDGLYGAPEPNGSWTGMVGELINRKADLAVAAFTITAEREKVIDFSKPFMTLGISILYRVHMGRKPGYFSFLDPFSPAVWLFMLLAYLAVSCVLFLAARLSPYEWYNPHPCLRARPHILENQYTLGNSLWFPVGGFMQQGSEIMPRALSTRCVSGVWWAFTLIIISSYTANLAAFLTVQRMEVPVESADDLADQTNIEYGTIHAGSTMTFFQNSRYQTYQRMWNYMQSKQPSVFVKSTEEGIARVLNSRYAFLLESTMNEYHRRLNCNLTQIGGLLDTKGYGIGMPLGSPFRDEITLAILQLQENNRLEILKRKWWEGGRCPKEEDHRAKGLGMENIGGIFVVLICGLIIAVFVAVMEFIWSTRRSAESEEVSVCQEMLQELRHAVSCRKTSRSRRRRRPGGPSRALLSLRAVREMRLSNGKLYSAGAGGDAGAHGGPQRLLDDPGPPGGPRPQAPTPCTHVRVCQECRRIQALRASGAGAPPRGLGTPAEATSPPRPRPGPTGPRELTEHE
Described as above. As to conditions: Cheng-Prusoff. As for the experimental part:
as §1, §2, §3

The target in another test is T4, GluR7a (Rattus norvegicus, UniProt P42264).
T4 construct: expressed in transfected cells; host or cells: HEK-293-T/17
The test is described as above. As for the experimental part: as §1, §2, §3

The target of a further test is T5, GluR1(i) (Rattus norvegicus, UniProt P19490).
T5 construct: expressed in transfected cells; host or cells: HEK-293-T/17
In words: Radioligand binding ([3H]AMPA displacement), HEK-293-T/17 membranes, Example 2. As to conditions: Cheng-Prusoff. As for the experimental part: as §1, §2, §3

In the next test the target is T6, GluR2(i) (Rattus norvegicus, UniProt P19491).
T6 construct: expressed in transfected cells; host or cells: HEK-293-T/17
Described as above. As to conditions: Cheng-Prusoff. As for the experimental part: as §1, §2, §3

Another test concerns mice. The conditions noted are these: Shoji et al., 2006, cited from earlier work; for ED50 seizure activity: i.c.v. injection, mice; for convulsant behavior, from the literature: i.c.v., Sasaki et al., 1999, Sakai et al., 2001a.
The mark [1] stands for this setting: [3H]kainate displacement, read-out: Ki KA2.
[2] abbreviates: [3H]kainate displacement, Cheng-Prusoff, read-out: Ki GluR7a.

T2 sequence (P22756 with tags, fused parts or gaps isoform P22756-2 limits assumed, stated change not applied): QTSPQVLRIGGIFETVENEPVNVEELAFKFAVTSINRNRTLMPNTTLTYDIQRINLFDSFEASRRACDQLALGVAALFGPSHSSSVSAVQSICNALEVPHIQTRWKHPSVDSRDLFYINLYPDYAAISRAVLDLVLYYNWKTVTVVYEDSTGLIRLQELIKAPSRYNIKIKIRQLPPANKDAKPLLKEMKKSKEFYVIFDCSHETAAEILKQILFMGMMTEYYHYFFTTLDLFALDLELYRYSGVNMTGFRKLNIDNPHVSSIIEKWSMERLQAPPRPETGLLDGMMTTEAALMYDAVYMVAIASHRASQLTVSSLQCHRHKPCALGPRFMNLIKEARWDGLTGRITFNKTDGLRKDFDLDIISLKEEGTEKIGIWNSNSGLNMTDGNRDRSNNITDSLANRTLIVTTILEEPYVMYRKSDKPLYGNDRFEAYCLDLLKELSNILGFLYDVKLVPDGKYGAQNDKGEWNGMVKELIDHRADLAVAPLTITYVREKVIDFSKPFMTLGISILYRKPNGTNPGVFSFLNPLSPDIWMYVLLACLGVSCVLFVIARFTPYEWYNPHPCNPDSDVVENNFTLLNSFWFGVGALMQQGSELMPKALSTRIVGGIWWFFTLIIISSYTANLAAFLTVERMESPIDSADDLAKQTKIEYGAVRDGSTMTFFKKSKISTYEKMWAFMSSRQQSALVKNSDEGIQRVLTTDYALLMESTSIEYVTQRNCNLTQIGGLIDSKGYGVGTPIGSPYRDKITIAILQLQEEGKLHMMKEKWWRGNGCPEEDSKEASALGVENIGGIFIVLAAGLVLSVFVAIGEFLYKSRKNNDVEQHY
T6 sequence (P19491 22-883 isoform P19491-2 limits assumed): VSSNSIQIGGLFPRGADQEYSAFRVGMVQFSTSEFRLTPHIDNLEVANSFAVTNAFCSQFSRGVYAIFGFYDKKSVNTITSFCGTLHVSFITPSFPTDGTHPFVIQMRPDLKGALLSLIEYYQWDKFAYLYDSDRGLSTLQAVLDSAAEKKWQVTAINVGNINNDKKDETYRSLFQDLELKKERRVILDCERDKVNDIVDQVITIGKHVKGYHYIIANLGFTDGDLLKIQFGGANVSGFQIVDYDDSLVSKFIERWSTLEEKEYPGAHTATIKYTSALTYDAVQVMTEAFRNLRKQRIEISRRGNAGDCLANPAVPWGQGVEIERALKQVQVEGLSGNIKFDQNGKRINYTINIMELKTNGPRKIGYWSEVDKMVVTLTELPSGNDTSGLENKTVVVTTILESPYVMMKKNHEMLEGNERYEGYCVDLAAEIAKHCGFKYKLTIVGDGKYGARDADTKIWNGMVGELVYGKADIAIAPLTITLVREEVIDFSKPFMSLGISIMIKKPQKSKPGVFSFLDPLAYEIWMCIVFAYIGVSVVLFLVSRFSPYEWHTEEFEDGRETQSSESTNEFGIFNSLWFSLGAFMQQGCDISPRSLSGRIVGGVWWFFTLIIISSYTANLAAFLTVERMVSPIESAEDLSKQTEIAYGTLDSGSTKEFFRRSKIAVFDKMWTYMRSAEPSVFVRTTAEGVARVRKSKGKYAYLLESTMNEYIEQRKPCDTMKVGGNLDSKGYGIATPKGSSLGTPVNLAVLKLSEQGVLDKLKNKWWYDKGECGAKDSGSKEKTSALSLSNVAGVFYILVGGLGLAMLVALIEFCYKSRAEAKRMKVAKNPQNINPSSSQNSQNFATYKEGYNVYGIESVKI
T4 sequence (P42264 32-919): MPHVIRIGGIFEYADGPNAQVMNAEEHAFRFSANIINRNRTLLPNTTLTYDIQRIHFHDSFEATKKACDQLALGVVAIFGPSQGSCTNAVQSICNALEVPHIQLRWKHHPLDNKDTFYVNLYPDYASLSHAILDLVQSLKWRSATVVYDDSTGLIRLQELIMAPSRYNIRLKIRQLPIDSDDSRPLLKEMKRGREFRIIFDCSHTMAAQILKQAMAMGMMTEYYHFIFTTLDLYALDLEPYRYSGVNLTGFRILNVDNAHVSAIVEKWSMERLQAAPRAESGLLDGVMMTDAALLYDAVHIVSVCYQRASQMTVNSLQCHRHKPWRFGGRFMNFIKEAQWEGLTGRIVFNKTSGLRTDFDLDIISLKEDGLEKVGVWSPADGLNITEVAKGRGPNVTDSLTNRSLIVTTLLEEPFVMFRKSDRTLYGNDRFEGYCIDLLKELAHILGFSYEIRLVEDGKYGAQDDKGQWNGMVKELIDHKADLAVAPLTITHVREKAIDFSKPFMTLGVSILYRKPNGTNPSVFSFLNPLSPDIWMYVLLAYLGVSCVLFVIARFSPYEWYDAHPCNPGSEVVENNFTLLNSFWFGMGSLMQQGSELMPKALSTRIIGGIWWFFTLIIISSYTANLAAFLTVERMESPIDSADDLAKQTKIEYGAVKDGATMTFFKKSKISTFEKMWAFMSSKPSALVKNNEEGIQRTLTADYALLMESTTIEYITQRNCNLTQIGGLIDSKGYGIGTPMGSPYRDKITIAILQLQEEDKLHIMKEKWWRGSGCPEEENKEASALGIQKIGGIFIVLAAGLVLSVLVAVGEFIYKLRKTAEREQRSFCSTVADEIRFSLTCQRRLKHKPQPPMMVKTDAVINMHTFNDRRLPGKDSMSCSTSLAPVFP
T1 sequence (P42260 32-908): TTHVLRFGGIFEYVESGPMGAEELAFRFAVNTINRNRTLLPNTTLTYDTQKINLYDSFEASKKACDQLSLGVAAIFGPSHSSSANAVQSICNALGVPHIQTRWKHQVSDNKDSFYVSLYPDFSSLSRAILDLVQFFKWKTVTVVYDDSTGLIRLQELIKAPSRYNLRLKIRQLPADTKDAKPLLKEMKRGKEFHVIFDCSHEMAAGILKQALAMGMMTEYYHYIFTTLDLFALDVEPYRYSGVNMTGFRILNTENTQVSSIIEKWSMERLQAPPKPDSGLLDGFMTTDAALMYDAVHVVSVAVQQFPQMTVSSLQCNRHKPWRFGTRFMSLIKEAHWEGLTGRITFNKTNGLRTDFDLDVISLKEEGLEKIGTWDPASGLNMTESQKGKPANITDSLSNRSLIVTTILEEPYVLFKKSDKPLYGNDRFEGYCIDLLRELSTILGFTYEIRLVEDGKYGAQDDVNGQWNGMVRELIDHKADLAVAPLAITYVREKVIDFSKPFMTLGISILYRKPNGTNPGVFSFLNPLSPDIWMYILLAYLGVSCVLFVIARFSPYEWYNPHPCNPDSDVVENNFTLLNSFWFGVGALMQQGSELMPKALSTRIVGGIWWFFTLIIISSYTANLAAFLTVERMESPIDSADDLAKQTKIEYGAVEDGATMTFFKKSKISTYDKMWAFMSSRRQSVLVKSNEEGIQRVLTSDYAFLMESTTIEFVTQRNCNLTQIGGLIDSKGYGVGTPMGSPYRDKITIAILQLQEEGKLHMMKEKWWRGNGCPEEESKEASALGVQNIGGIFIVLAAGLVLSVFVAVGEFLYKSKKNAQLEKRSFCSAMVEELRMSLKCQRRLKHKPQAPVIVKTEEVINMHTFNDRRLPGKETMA
T5 sequence (P19490 19-907 isoform P19490-2 limits assumed): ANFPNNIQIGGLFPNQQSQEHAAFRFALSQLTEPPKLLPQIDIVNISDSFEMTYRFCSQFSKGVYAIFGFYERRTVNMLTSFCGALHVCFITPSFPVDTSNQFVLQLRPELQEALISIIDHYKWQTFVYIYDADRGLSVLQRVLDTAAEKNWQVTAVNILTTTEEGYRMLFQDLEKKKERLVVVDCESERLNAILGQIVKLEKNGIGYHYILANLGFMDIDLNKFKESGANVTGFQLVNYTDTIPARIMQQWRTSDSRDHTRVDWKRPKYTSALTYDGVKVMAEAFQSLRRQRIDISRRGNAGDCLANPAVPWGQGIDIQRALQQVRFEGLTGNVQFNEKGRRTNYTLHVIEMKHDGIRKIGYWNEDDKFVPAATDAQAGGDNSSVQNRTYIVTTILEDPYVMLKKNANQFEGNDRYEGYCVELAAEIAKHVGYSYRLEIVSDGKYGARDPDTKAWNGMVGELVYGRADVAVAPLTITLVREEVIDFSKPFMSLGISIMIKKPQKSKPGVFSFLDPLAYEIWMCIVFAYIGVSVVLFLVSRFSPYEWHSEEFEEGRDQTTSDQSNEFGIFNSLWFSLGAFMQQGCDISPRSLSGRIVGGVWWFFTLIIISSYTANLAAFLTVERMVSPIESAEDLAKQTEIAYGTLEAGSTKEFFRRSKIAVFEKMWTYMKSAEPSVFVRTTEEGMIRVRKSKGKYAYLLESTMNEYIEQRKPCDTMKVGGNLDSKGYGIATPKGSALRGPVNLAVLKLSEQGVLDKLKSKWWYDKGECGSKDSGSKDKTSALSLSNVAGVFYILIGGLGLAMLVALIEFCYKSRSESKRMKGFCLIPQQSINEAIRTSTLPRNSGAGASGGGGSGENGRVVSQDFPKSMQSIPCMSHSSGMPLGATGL

As usually defined, the Ki is a measure of affinity in units of concentration, obtained from inhibition or displacement. For the compound `N[C@@H](C[C@@]1(C(=O)O)CC2OCC(O)C(O)C2O1)C(=O)O` (single isomer, unassigned) [2,4-epi-neoDH, 2,4-epi-neodysiherbaine], the Ki on GluR6a (read-out: Ki GluR6a) was 7.7 µM; on GluR5-2a (read-out: Ki GluR5-2a) it was 2.4 µM; on KA2 (setting [1]) it was > 100 µM; on GluR7a (setting [2]) it was > 100 µM; at GluR1(i) (read-out: Ki GluR1(i)), > 100 µM; at GluR2(i) (read-out: Ki GluR2(i)) it was > 100 µM. For the same compound, the “binding to GluR7 receptor” value on GluR7a is on record as “Neither 2,4-epineoDH nor 4-epi-neoDH bound the GluR7 receptor appreciably”. Moreover, the ED50 seizure activity with mice and with mice (listed as 2,4epi-neoDH) was 11.4 nmol/mouse throughout. The “convulsant behavior, from the literature” value with mice is “weakly convulsant”.

For the compound `N[C@@H](C[C@@]1(C(=O)O)CC2OCC(O)C(O)C2O1)C(=O)O` (single isomer, unassigned) [4-epi-neoDH, 4-epi-neodysiherbaine], the Ki is 6.7 µM on GluR6a (read-out: Ki GluR6a); 0.559 µM and ~0.56 µM on GluR5-2a (read-out: Ki GluR5-2a); ~30 µM on KA2 (setting [1]); > 100 µM at GluR7a (setting [2]); > 30 µM on GluR1(i) (read-out: Ki GluR1(i)); > 30 µM at GluR2(i) (read-out: Ki GluR2(i)). Moreover, at GluR7a, the “binding to GluR7 receptor” value is reported as “Neither 2,4-epineoDH nor 4-epi-neoDH bound the GluR7 receptor appreciably”. The ED50 seizure activity with mice is 1.7 nmol/mouse. Also, in the test with mice, the “convulsant behavior, from the literature” value is given as “weakly convulsant”.

`NC(CC1(C(=O)O)CC2OCC(O)C(O)C2O1)C(=O)O` (stereo not drawn) [8,9-epi-neoDH, 8,9-epi-neodysiherbaine]: the Ki was > 100 µM at GluR6a (read-out: Ki GluR6a); 48 µM on GluR5-2a (read-out: Ki GluR5-2a); >100 µM at KA2 (setting [1]); > 100 µM on GluR7a (setting [2]); > 100 µM on GluR1(i) (read-out: Ki GluR1(i)); > 100 µM on GluR2(i) (read-out: Ki GluR2(i)).

As for `N[C@@H](C[C@]1(C(=O)O)C[C@H]2OC[C@@H](O)C[C@H]2O1)C(=O)O` [8-deoxy-neoDH], the Ki at GluR6a (Ki GluR6a) was 48 µM; at GluR5-2a (Ki GluR5-2a), 0.0015 µM; on KA2 (Ki KA2, [3H]kainate displacement) it was 20 µM; on GluR7a, 2.9 µM; at GluR1(i) (Ki GluR1(i)) it was > 100 µM; on GluR2(i) (Ki GluR2(i)) it was > 100 µM. The ED50 seizure activity in the test on mice is given as 238 pmol/mouse.

For the compound `NC(CC1(C(=O)O)CC2OCC(O)C(O)C2O1)C(=O)O` (stereo not drawn) [8-epi-neoDH, 8-epi-neodysiherbaine], the Ki at GluR6a (read-out: Ki GluR6a) is 22 µM; at GluR5-2a (read-out: Ki GluR5-2a), 0.034 µM; on KA2 (setting [1]) it was >100 µM; on GluR7a (setting [2]) it was 1.7 µM; on GluR1(i) (read-out: Ki GluR1(i)) it was 16 µM; on GluR2(i) (read-out: Ki GluR2(i)), 23 µM. Besides, the ED50 seizure activity in the test with mice is given as 283 pmol/mouse.

Turning to `NC(CC1(C(=O)O)CC2OCC(F)C(O)C2O1)C(=O)O` (stereo not drawn) [9-F-8-epi-neoDH], the “binding affinity for GluR6a subunit” value on GluR6a is reported as “do not exhibit measurable affinity”. The Ki at GluR6a (read-out: Ki GluR6a) was > 100 µM; at GluR5-2a (read-out: Ki GluR5-2a), 0.028 µM; on KA2 (setting [1]), >100 µM; on GluR7a (setting [2]), > 100 µM; at GluR1(i) (read-out: Ki GluR1(i)), > 100 µM; at GluR2(i) (read-out: Ki GluR2(i)) it was > 100 µM. For the same compound, the ED50 seizure activity in the test on mice is on record as 374 pmol/mouse.

Turning to `N[C@@H](C[C@]1(C(=O)O)C[C@H]2OCC[C@@H](O)[C@H]2O1)C(=O)O` [9-deoxy-neoDH], the “binding affinity for GluR6a subunit” value at GluR6a is given as “do not exhibit measurable affinity”. For the same compound, the Ki at GluR6a (read-out: Ki GluR6a) is > 100 µM; at GluR5-2a (read-out: Ki GluR5-2a), 0.169 µM; on KA2 (setting [1]), > 100 µM; at GluR7a (setting [2]), > 100 µM; on GluR1(i) (read-out: Ki GluR1(i)), > 100 µM; on GluR2(i) (read-out: Ki GluR2(i)), > 100 µM. Moreover, in the test on mice, the ED50 seizure activity was 7.1 nmol/mouse.

As for `NC(CC1(C(=O)O)CC2OCC(O)C(O)C2O1)C(=O)O` (stereo not drawn) [9-epi-neoDH, 9-epi-neodysiherbaine], the “binding affinity for GluR6a subunit” value on GluR6a is listed as “do not exhibit measurable affinity”. Besides, the inhibition constant Ki at GluR6a (read-out: Ki GluR6a) was > 100 µM; at GluR5-2a (read-out: Ki GluR5-2a) it was 0.292 µM; on KA2 (setting [1]), >100 µM; on GluR7a (setting [2]), > 100 µM; on GluR1(i) (read-out: Ki GluR1(i)) it was > 100 µM; at GluR2(i) (read-out: Ki GluR2(i)), > 100 µM. The ED50 seizure activity with mice is listed as 8.6 nmol/mouse.

For `N[C@@H](C[C@]1(C(=O)O)C[C@H]2OCCC[C@H]2O1)C(=O)O` [MSVIII-19, 8,9-dideoxy-neoDH], on GluR6a, the “binding affinity for GluR6a subunit” value is recorded as “do not exhibit measurable affinity”. Besides, in the test on mice, the ED50 seizure activity was 6.3 nmol/mouse and the “convulsant behavior, from the literature” value is given as “sub-seizure stereotyped behavior followed by unresponsiveness”.
